# Measurements reported in US5834461A, “Tricyclic benzazepine vasopressin antagonists” (American Cyanamid Company, priority 1997, dated 1998).
# Experiments:
# [1] = molecular target: vasopressin V1 receptor (rat liver plasma membranes) (Rattus norvegicus, UniProt P30560); test: Binding Assay to Rat Hepatic V1 Receptors; conditions: for IC50: rat hepatic V1
# [2] = molecular target: T1, oxytocin receptors (rat uterus membranes) (Rattus norvegicus, UniProt P70536); test: Oxytocin Receptor Binding; parameters: species or system female Sprague-Dawley rats
# T1 construct: The resulting pellet containing the oxytocin receptors is resuspended; from tissue; host or cells: uterus membranes of DES-treated female Sprague-Dawley rats
# T1 sequence (P70536 1-388): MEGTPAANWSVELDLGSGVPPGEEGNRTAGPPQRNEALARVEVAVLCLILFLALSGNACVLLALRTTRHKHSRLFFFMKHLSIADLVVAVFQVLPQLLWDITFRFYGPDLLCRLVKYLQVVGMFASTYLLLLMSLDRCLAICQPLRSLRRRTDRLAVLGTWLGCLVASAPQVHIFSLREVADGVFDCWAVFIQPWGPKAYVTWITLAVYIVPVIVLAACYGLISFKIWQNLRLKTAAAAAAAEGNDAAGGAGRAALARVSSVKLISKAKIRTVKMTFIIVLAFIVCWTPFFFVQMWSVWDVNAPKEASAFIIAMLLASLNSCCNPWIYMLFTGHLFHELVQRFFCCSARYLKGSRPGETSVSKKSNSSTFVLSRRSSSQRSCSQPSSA
# Method: Female Sprague-Dawley rats weighing approximately 200-250 g are injected intramuscularly (i.m.) with 0.3 mg/kg of body weight of diethylstilbestrol (DES). The rats are sacrificed 18 hours later under pentobarbital anesthesia. The uteri are dissected out, cleaned of fat and connective tissues and rinsed in 50 ml of normal saline. The tissue pooled from six rats is homogenized in 50 ml of […] Tris.HCl, containing 0.5 mM dithiothreitol and 1.0 mM EDTA, adjusted to pH 7.4, using a polytron at setting 6 with three passes of 10 sec each. The homogenate is passed through two (2) layers of cheesecloth and the filtrate centrifuged at 1000×g for 10 min. The clear supernatant is removed and recentrifuged at 165,000×g for 30 min. The resulting pellet containing the oxytocin receptors is resuspended in 50.0 mM Tris.HCl containing 5.0 mM MgCl2 at pH 7.4, to give a protein concentration of 2.5 mg/ml of tissue suspension. This preparation is used in subsequent binding assays with [^3 H]Oxytocin.
# Binding of 3,5-[^3 H]Oxytocin ([^3 H]OT) to its receptors is done in microtiter plates using [^3 H]OT, at various concentrations, in an assay buffer of 50.0 mM Tris.HCl, pH 7.4 and containing 5.0 mM MgCl2, and a mixture of protease inhibitors: BSA, 0.1 mg; aprotinin, 1.0 mg; 1,10-phenanthroline, 2.0 mg; […], 10.0 mg; and PMSF, 0.3 mg per 100 ml of buffer solution. Non-specific binding is determined in the presence of 1.0 uM unlabeled OT. The binding reaction is terminated after 60 min., at 22° C., by rapid filtration through glass fiber filters using a Brandel® cell harvester (Biomedical Research and Development Laboratories, Inc., Gaithersburg, Md.). Competition experiments are conducted at equilibrium using 1.0 nM [^3 H]OT and varying the concentration of the displacing agents. The concentrations of agent displacing 50% of [^3 H]OT at its sites (IC50) are calculated by a computer assisted LUNDON-2 program (LUNDON SOFTWARE INC., Ohio, USA).
# vasopressin V1 receptor (rat liver plasma membranes), sequence (P30560 whole entry): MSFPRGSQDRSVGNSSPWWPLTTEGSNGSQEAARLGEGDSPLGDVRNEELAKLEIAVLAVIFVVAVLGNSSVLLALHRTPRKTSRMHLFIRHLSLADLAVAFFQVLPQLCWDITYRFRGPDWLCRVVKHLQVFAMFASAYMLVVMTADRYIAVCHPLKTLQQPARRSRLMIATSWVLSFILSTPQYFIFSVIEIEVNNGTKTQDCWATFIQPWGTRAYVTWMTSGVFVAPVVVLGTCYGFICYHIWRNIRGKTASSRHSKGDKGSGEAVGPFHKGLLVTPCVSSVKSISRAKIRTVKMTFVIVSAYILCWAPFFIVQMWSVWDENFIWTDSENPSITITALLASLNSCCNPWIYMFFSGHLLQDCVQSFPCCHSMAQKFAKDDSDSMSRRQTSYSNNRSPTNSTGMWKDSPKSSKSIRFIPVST
SMILES,IC50 [1] [nM],inhibition at 10 µM [2] [%],IC50 ([2]; first part of Table V) [nM],"inhibition at 10 µM ([1]; 2 h, 10 μM, rat hepatic, read-out: V1, % at concentration in brackets) [%]",IC50 ([2]; second part of Table V) [nM]
"Cc1ccccc1C(=O)Nc1ccc(C(=O)N2Cc3ccccc3Cc3ccccc32)cc1 [Example 2, N-[4-[(6,11-Dihydro-5H-dibenz[b,e]azepin-5-yl)carbonyl]phenyl]-2-methylbenzamide]",150,73,2900,,
"Cc1ccccc1C(=O)Nc1ccc(C(=O)N2Cc3ccccc3-c3ccccc32)cc1 [Example 5, 2-Methyl-N-[4-[(5(6H)-phenanthridinyl)carbonyl]phenyl]benzamide]",56,90,2000,,
"O=C(Nc1ccc(C(=O)N2Cc3ccccc3Cc3ccccc32)cc1)c1cc(Cl)cc(Cl)c1 [Example 251, N-(4-[(6,11-Dihydro-5H-dibenz[b,e]azepin-5-yl)-carbonyl]phenyl]-3,5-dichlorobenzamide]",1500,77,,,
"O=C(Nc1ccc(C(=O)N2Cc3ccccc3Cc3ccccc32)cc1)c1cccc(Cl)c1Cl [Example 253, N-[4-[(6,11-Dihydro-5H-dibenz[b,e]azepin-5-yl)-carbonyl]phenyl]-2,3-dichlorobenzamide]",310,77,3100,,
"O=C(Nc1ccc(C(=O)N2Cc3ccccc3Cc3ccccc32)cc1)C1CC=CCC1 (stereo not shown) [Example 255, N-[4-[(6,11-Dihydro-5H-dibenz[b,e]azepin-5-yl)-carbonyl]phenyl]-3-cyclohexene-1-carboxamide]",27,99,460,,
"COc1cc(C(=O)N2Cc3ccccc3Cc3ccccc32)ccc1NC(=O)c1ccccc1C [Example 257, N-[4-[(6,11-Dihydro-5H-dibenz[b,e]azepin-5-yl)-carbonyl]-2-methoxyphenyl]-2-methylbenzamide]",,97,189,,
"Cc1ccccc1C(=O)Nc1c(C)cc(C(=O)N2Cc3ccccc3Cc3ccccc32)cc1C [Example 258, N-[4-[(6,11-Dihydro-5H-dibenz[b,e]azepin-5-yl)-carbonyl]-2,6-dimethylphenyl]-2-methylbenzamide]",,18,,75,
"Cc1cc(C(=O)N2Cc3ccccc3Cc3ccccc32)cc(C)c1NC(=O)c1ccc(Cl)cc1Cl [Example 259, N-[4-[(6,11-Dihydro-5H-dibenz[b,e]azepin-5-yl)-carbonyl]-2,6-dimethylphenyl]-2 4-dichlorobenzamide]",4000,7,,,
"Cc1ccccc1C(=O)Nc1ccc(C(=O)N2Cc3ccccc3Cc3ccccc32)c(Cl)c1 [Example 260, N-[4-[(6,11-Dihydro-5H-dibenz[b,e]azepin-5-yl)-carbonyl]-3-chlorophenyl]-2-methylbenzamide]",120,44,,,
"COc1cc(C(=O)N2Cc3ccccc3Cc3ccccc32)ccc1NC(=O)c1cc(F)ccc1C [Example 261, N-[4-[(6,11-Dihydro-5H-dibenz[b,e]azepin-5-yl)-carbonyl]-2-methoxyphenyl]-2-methyl-5-fluorobenzamide]",,97,210,,
"Cc1c(F)cccc1C(=O)Nc1ccc(C(=O)N2Cc3ccccc3Cc3ccccc32)cc1Cl [Example 262, N-[4-[(6,11-Dihydro-5H-dibenz[b,e]azepin-5-yl)-carbonyl]-2-chlorophenyl]-2-methyl-3-fluorobenzamide]",,55,6200,,
"COc1cc(C(=O)N2Cc3ccccc3Cc3ccccc32)ccc1NC(=O)c1ccc(Cl)cc1Cl [Example 263, N-[4-[(6,11-Dihydro-5H-dibenz[b,e]azepin-5-yl)-carbonyl]-2-methoxyphenyl]-2,4-dichlorobenzamide]",,94,260,,
"Cc1ccccc1C(=O)N(CN(C)C)c1ccc(C(=O)N2Cc3ccccc3Cc3ccccc32)cc1 [Example 267, N-[4-[(6,11-Dihydro-5H-dibenz[b,e]azepin-5-yl)-carbonyl]phenyl]-N-[(dimethylamino)methyl]-2-methylbenzamide]",26,89,1100,,
"Cc1ccccc1C(=O)Nc1ccc(C(=O)N2CCc3cn(C)nc3-c3ccccc32)cc1 [Example 379, N-[4-[(4,5-Dihydro-2-methylpyrazolo[4,3-d][1]-benzazepin-6(2H)-yl)carbonyl]phenyl]-2-methylbenzamide]",250,96,810,,
"Cc1ncc2c(n1)-c1ccccc1N(C(=O)c1ccc(NC(=O)c3ccccc3C)cc1)CC2 [Example 416, N-[4-[(6,7-Dihydro-2-methyl-5H-pyrimido[5,4-d][1]-benzazepin-7-yl)carbonyl]phenyl]-2-methylbenzamide]",34500,19,,,
"O=C(Nc1ccc(C(=O)N2Cc3ccccc3Sc3ccccc32)cc1)c1ccccc1Cl [Example 448, N-[4-[(Dibenz[b,f][1,4]thiazepin-10(11H)yl)-carbonyl]phenyl]-2-chlorobenzamide]",73,39,,,
CC(C)COc1ccc([N+](=O)[O-])cc1C(=O)Nc1ccc(C(=O)N2Cc3ccccc3Cc3ccccc32)cc1 [Example 453],,,,,3300
"Cc1nc2c(s1)CCN(C(=O)c1ccc(NC(=O)c3ccc(Cl)cc3Cl)cc1)c1ccccc1-2 [Example 455, N-[4-(4,5-Dihydro-2-methyl-6H-thiazolo[5,4-d][1]-benzazepin-6-yl)carbonyl1phenyl]-2,4-dichlorobenzamide]",,88,,,1100
Cc1nc2c(s1)CCN(C(=O)c1ccc(NC(=O)c3cc(F)ccc3C)cc1)c1ccccc1-2 [Example 534],,86,,,940
Cc1ccc(F)cc1C(=O)Nc1ccc(C(=O)N2CCc3c[nH]nc3-c3ccccc32)c(Cl)c1 [Example 581],740,95,,,475
"Cc1ccc(F)cc1C(=O)Nc1ccc(C(=O)N2CCc3c[nH]nc3-c3ccccc32)cc1 [Example 584, N-[4-[(4.5-Dihydropyrazolo[4,3-d][1]benzazepin-6(2H)-yl)carbonyl]phenyl]-5-fluoro-2-methylbenzamide]",39,100,,,170
